Data as given in patent US20150218516A1, “COMPOSITIONS AND METHODS FOR ENHANCING IMMUNE RESPONSES MEDIATED BY ANTIGEN-PRESENTING CELLS” (The Board of Regents of the University of Nebraska, priority 2007, published 2015).
“Also recorded” adds a separate entry of the source. Non-standard residues stand in square brackets, D forms with d. Residues, ends and D or L forms follow the SMILES beside them. No end group written: not given here.

How the values were obtained:
[1] = tested on: P815S (HBsAg transfectant) target cells; test: HBsAg-specific CTL response of immunized mice, 51Cr-release cytotoxicity assay; type: in vivo, BALB/c mice; conditions: for Ag-specific CTL response (in words): two or three s.c. injections at 21 day intervals, no added adjuvant; for % Specific Lysis: s.c. in PBS
Description: Groups of six to eight BALB/c mice were given bilateral s.c. injections in the inguinal area with (100 al each side) of a PBS solution containing 50-100 μg of the peptides. Booster injections were given s.c. in the inguinal region at 21-day intervals. Sera for Ab analysis were obtained by retro-orbital bleeds of mice under CO2 narcosis.
Three weeks after secondary) (2° immunization and two weeks after tertiary)(3° immunization, two to three mice from each experimental group were sacrificed by cervical dislocation and their spleens removed aseptically. Pooled splenic single-cell suspensions were prepared in RPMI-1640 medium (Sigma, St. Louis, Mo.) containing 10% FBS (Hyclone, Salt Lake City, Utah) and the following supplements: 10 mM HEPES buffer, 50 μM 2-ME, 2 mM L-glutamine, 50 μg/ml gentamicin sulfate, 100 Um′ penicillin, and 50 μg/ml streptomycin (all supplements from Sigma). This supplemented complete medium is designated RP10-SC. For culture, 75×10^6 pooled spleen cells in 5 ml of RP10-SC were pipetted into a 25 cm^2 T-flask (Corning). Next, 5 ml of RP 10-SC containing 150 nM of synthetic, L^d MHC class I-restricted peptide, […] (SEQ ID NO:12) were added to the flask. The flasks were incubated undisturbed in an upright position at 37° C. in 5% CO2. After 4 days of incubation, the cells were recovered from the T-flasks, washed once by centrifugation in fresh RP10-SC, resuspended in 5 ml RP10-SC, counted, and adjusted to 5×10^6 viable cells/ml.
The specific cell target used for measuring CTL activity was P815S, a transfectant cell line of P815 (H-2^d) expressing the HBsAg (14). P815S was grown in RP10-SC medium containing 400 μg/ml geneticin disulfate (G418, Sigma). The parental H-2^d mastocytoma cell line, P815 (ATTC #TIB64) grown in RP10-SC medium, was used as a non-specific target for CTL assays to measure % non-specific lysis.
The target cells, either P815S or P815, were washed 2 times in RP10-SC. For labeling, 5×10^6 target cells were mixed with 250 μCi ^51Cr-sodium chromate[400-1200 Ci (14.8-44.4 TBq)]/[…]; NEN Dupont, Boston, Mass.) in a 1.0 ml volume in a 50 ml conical tube and incubated in a 37° C. water bath for 90 mins. After incubation, the labeled cells were washed 3 times by centrifugation using 15 ml volumes of fresh RP10-SC and allowed to stand at room temperature for 30 mins. The pelleted cells were resuspended in RP10-SC at 1×10^6 cells/ml.
The recovered splenic effector cells at 5×10^6 cells/ml were serially diluted in triplicate in wells of round-bottom 96 well plates (Corning, 25850) in a total volume of 100 al/well and using RP10-SC as the diluent. Next, 100 μl volumes of ^51Cr-labeled targets, P815S or P815, at 1×10^6 cells/ml were added to the wells. Maximum release (MR) wells contained 100 al of target cells and 100 al of 2% (v/v) Tween 20 while spontaneous release (SR) wells contained labeled cells in medium alone. Effector-to-target ratios of 50:1, 25:1, 12.5:1, and 6.25:1 were routinely employed. The plates were centrifuged at 400×g and incubated at 37° C. in 5% CO2 for 4 hrs. After incubation, the supernatant fractions in the wells were collected using a Skatron Supernatant Collection System (Skatron Instruments, Sterlin, Va.). The amount of ^51Cr radioactivity in the supernatant fractions was measured using a Wallac 1470 Wizard gamma counter (Turku, Finland).

human umbilical artery = test: Smooth muscle contraction of human umbilical artery; type: cell-based; conditions: for EC50: concentration resulting in 50% maximum contraction; for agonist behaviour relative to natural C5a (in words): umbilical artery contraction and MPO release assays; for pD2 ± SE: −log EC50 (M), mean ± SE, n=3
Description: (§1) Statistical analysis of the values obtained from pharmacologic assays was performed using one-way analysis of variance (ANOVA).

human PMNs = test: MPO release from human PMNs; type: cell-based; conditions: for EC50: 50% maximum release of myeloperoxidase; for pD2 ± SE: −log EC50 (M), mean ± SE, n=3
Description: as §1

MUC1 epitope peptide = test: Serum antibody response to MUC1 epitope peptide in immunized mice (RIA); type: in vivo, C57B16 and Balb/c mice; conditions: 100 μg i.p. with RIBI adjuvant, three immunizations, sera at 6 weeks
Excerpt: The strains of mice used for this example were inbred females 6 to 12 week old C57B16(H-2^b) and Balb/c (H-2^d), which were obtained from Jackson labs (Bar Harbor, Me.). […] The MUC1 peptide selected for these studies contained a motif that may bind to the H-2K^b molecule of the C57B16 mice; therefore, a strain of mouse that lacked this class I molecule binding motif (Balb/c) was also studied to determine the relative contribution of the class I binding motif to the antigen presentation properties of these peptides.
(§2) Preimmune sera were obtained from mice, which were subsequently immunized intraperitoneally with 100 μg of the indicated peptide with RIBI adjuvant (MPL+TDM+CWS) (Sigma Immunochemicals). Animals were boosted twice at two week intervals using the same injection procedure. Sera were obtained following three immunizations (at 6 weeks).
For radioimmunoassay (RIA), anti-peptide antibodies were determined, before and at different time points after immunization, in 96-well microtiter plates (Dynatech Laboratories, Inc.). Plates were coated with 50 μl of a 100 μg/ml appropriate peptide in phosphate-buffered saline (PBS) pH 7.4 solution overnight at 4° C. The wells were blocked by incubation with 5% dry milk in PBS pH 7.4 for at least two hours. Anti-peptide antibody titers were determined using serial dilutions of sera. The sera were diluted with PBS containing 0.05% Tween-20, pH 7.4 (washing buffer) and 50 μl of each dilution was incubated at 37° C. for 1 hour. The wells were then drained, washed 4 times with PBS-Tween and 50 μl of ^125I-goat anti-mouse Ab (1-2×10^4 cpm/well) was added and incubated for 1 hr at 25° C. After washing, specific radioactivity was recorded in a gamma counter (1272 CliniGamma, LKB).
Experimental groups were as follows: • Group A. mice immunized with peptide (1) • Group B. mice immunized with peptide (2) • Group C. mice immunized with peptide (1) plus peptide (2) • Group D. mice immunized with peptide (3) • Group E. mice immunized with peptide (4).

MUC1 peptide = test: MUC1 specific antibody isotype titers in immunized mice (ELISA); type: in vivo, C57BL6 mice; conditions: for Ab titer IgA / Ab titer IgG1 / Ab titer IgG2a / Ab titer IgG2b / Ab titer IgG3 / Ab titer IgM: mean titer of responders, sera screened against MUC1 peptide, five mice
Description: as §2
Anti-peptide antibody isotype titers were determined by enzyme-linked immunosorbent assay (ELISA) carried out in 96-well microtiter plates. The plates were coated with 100 μg/ml of appropriate peptide in PBS, pH 7.4, and incubated overnight. The wells were blocked with 5% dry milk in PBS pH 7.4 for at least two hours. Anti-peptide titers were determined using serial dilutions of sera as described above. After the plates were washed 4 times, 50 μl of a 1:100 dilution of rabbit anti-mouse IgA, IgG1, IgG2a, IgG2b, IgG3 and IgM (Zymed) was added to each well and incubated at 25° C. for 1 hour. The plates were washed 4 times with washing buffer and 50 μl of 1:500 goat anti-rabbit conjugated to […] (Zymed) was incubated at 37° C. for 1 hour. Again, the plates were washed 4 times with washing buffer and bound enzyme was detected by the addition of 50 μl 1 mg/ml p-nitrophenyl phosphate (Sigma) in 10% diethanolamine (Sigma) pH 9.4. The reaction was stopped by the addition of 50 μl of 0.5 M sodium hydroxide and absorbance values (A405) were determined on Titertek Multiskan (Flow Laboratories, Irvine, Scotland).
The following experiment was performed in order to compare the potency of the molecular adjuvant of the present invention with a widely used method for enhancing the immune response to peptide epitopes. The objective was a direct comparison of the response to a construct of MUC1 epitope-C5a agonist and the same epitope conjugated to keyhole limpet hemocyanine (KLH) in mice.

[2] = Effector:Target 6.25:1, boost day 21, spleen cells day 42
[3] = Effector:Target 12.5:1, boost day 21, spleen cells day 42
[4] = Effector:Target 25:1, boost day 21, spleen cells day 42
[5] = Effector:Target 50:1, boost day 21, spleen cells day 42, restimulated 4 days with S28-39

CC[C@H](C)[C@H](N)C(=O)N1CCC[C@H]1C(=O)N[C@@H](CCC(N)=O)C(=O)N[C@@H](CO)C(=O)N[C@@H](CC(C)C)C(=O)N[C@@H](CC(=O)O)C(=O)N[C@@H](CO)C(=O)N[C@@H](Cc1c[nH]c2ccccc12)C(=O)N[C@@H](Cc1c[nH]c2ccccc12)C(=O)N[C@H](C(=O)N[C@@H](CO)C(=O)N[C@@H](CC(C)C)C(=O)N[C@@H](CCCNC(=N)N)C(=O)N[C@H](C(=O)N[C@@H](CCCNC(=N)N)C(=O)N[C@@H](CCCNC(=N)N)C(=O)N[C@@H](Cc1ccc(O)cc1)C(=O)N[C@@H](CO)C(=O)N[C@@H](Cc1ccccc1)C(=O)N[C@@H](CCCCN)C(=O)N1CCC[C@H]1C(=O)N[C@@H](CCSC)C(=O)N1CCC[C@H]1C(=O)N[C@@H](CC(C)C)C(=O)N[C@H](C)C(=O)N[C@@H](CCCNC(=N)N)C(=O)O)C(C)C)[C@@H](C)O (H-IPQSLDSWWTSLRVRRYSFKPMPL[dA]R-OH)
Ag-specific CTL response (in words) [1]: specific CTL response that was significantly above background levels; also recorded: robust CTL activity | EC50 (human umbilical artery): 180 nM | agonist behaviour relative to natural C5a (in words) (human umbilical artery): full agonists | pD2 ± SE (human umbilical artery): 6.67 ± 0.22 | EC50 (human PMNs): 2150 nM | pD2 ± SE (human PMNs): 5.61 ± 0.19

CC[C@H](C)[C@H](N)C(=O)N1CCC[C@H]1C(=O)N[C@@H](CCC(N)=O)C(=O)N[C@@H](CO)C(=O)N[C@@H](CC(C)C)C(=O)N[C@@H](CC(=O)O)C(=O)N[C@@H](CO)C(=O)N[C@@H](Cc1c[nH]c2ccccc12)C(=O)N[C@@H](Cc1c[nH]c2ccccc12)C(=O)N[C@H](C(=O)N[C@@H](CO)C(=O)N[C@@H](CC(C)C)C(=O)N[C@@H](Cc1ccc(O)cc1)C(=O)N[C@@H](CO)C(=O)N[C@@H](Cc1ccccc1)C(=O)N[C@@H](CCCCN)C(=O)N1CCC[C@H]1C(=O)N[C@@H](CCSC)C(=O)N1CCC[C@H]1C(=O)N[C@@H](CC(C)C)C(=O)N[C@H](C)C(=O)N[C@@H](CCCNC(=N)N)C(=O)O)[C@@H](C)O (H-IPQSLDSWWTSLYSFKPMPL[dA]R-OH)
% Specific Lysis [1, 2]: 1% | % Specific Lysis [1, 3]: 2% | % Specific Lysis [1, 4]: 4% | % Specific Lysis [1, 5]: 6% | Ag-specific CTL response (in words) [1]: lack of a CTL response | EC50 (human umbilical artery): 210 nM | agonist behaviour relative to natural C5a (in words) (human umbilical artery): full agonists | pD2 ± SE (human umbilical artery): 6.68 ± 0.17 | EC50 (human PMNs): 1580 nM | pD2 ± SE (human PMNs): 5.80 ± 0.04

IPQSLDSWWTSL [HBsAg L^d MHC class I-restricted peptide S28-39, reference compound]
% Specific Lysis [1, 2]: 3% | % Specific Lysis [1, 3]: 3% | % Specific Lysis [1, 4]: 5% | % Specific Lysis [1, 5]: 7%

IPQSLDSWWTSLRR [reference compound]
% Specific Lysis [1, 2]: 0% | % Specific Lysis [1, 3]: 1% | % Specific Lysis [1, 4]: 2% | % Specific Lysis [1, 5]: 2%

YKQGGFLGL [reference compound]
antibody response (in words) (MUC1 epitope peptide): no appreciable increase in antibody response

YKQGGFLGL-KLH (YKQGGFLGL-{KLH}; also: conjugated to KLH) [reference compound]
Ab titer IgA (MUC1 peptide): 0 | Ab titer IgG1 (MUC1 peptide): 100 | Ab titer IgG2a (MUC1 peptide): 0 | Ab titer IgG2b (MUC1 peptide): 0 | Ab titer IgG3 (MUC1 peptide): 0 | Ab titer IgM (MUC1 peptide): 5010 | number of responders IgG1 (MUC1 peptide; responders / mice immunized): (2/5) | number of responders IgM (MUC1 peptide; responders / mice immunized): (4/5)

YKQGGFLGLYSFKPMPLaR
isotypes of the anti-peptide antibodies produced (MUC1 peptide; FIG. 3): IgM, IgG2a, and IgG2b | specificity of antibody response for the MUC1 epitope (MUC1 peptide; FIG. 4): high percentage of antibodies that are specific for the MUC1 epitope | Ab titer IgA (MUC1 peptide): 0 | Ab titer IgG1 (MUC1 peptide): 0 | Ab titer IgG2a (MUC1 peptide): 1260 | Ab titer IgG2b (MUC1 peptide): 1780 | Ab titer IgG3 (MUC1 peptide): 0 | Ab titer IgM (MUC1 peptide): 6310 | number of responders IgG2a (MUC1 peptide; responders / mice immunized): (5/5) | number of responders IgG2b (MUC1 peptide; responders / mice immunized): (5/5) | number of responders IgM (MUC1 peptide; responders / mice immunized): (5/5) | antibody response (in words) (MUC1 epitope peptide; listed as MUC1 epitope/C5a agonist peptide conjugate): appreciable antibody response | antibody response (in words) (MUC1 epitope peptide; listed as peptide 3): substantial responses

YSFKPMPLaRKQGGFLGL (YSFKPMPL[dA]RKQGGFLGL)
antibody response (in words) (MUC1 epitope peptide): immune responses were not produced
